# Assay results reported in patent publication US8618138B2, “Indole amide derivatives and related compounds for use in the treatment of neurodegenerative diseases” (Katholieke Universiteit Leuven, K.U. Leuven R&D, priority 2009, dated 2013).
# Test system: M17-TAU P301L cells
# Test: TAU cytotoxicity assay: LDH leakage of retinoic acid incubated M17-TAU P301L cells
# Assay type: cell-based, human
# Details: Homo sapiens, 168 h, reduction of LDH activity of retinoic acid incubated M17-TAU P301L cells, 7 days
# Method in brief: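 M17 neuroblastoma cells stably expressing human TAU P301L, seeded at 2500 cells/cm2 in Optimem with 1% FCS, then given 2.5 μM retinoic acid (stock before 1:1 addition) and grown 7 days at 37 °C. Cytotoxicity read as LDH leaked into medium; EC50 derived from these measurements.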
row,Compound,EC50
1,"O=C(c1cc(Cc2cc(F)ccc2F)on1)N1CCC(c2c[nH]c3ccc(Cl)cc23)CC1 [Example D139, (4-(5-chloro-1H-indol-3-yl)piperidin-1-yl)(5-(2,5-difluorobenzyl)isoxazol-3-yl)methanone]",0.186 µM
2,"O=C(NCCc1c[nH]c2ccc(-c3ccccc3)cc12)c1cc(Cc2cc(F)ccc2F)on1 [Example D140, 5-(2,5-difluorobenzyl)-N-(2-(5-phenyl-1H-indol-3-yl)ethyl)isoxazole-3-carboxamide]",0.316 µM
3,"O=C(NCCc1c[nH]c2c(F)cc(Cl)cc12)c1cc(Cc2cc(F)ccc2F)on1 [Example D141, N-(2-(5-chloro-7-fluoro-1H-indol-3-yl)ethyl)-5-(2,5-difluorobenzyl)isoxazole-3-carboxamide]",0.233 µM
4,"O=C(NCCc1c[nH]c2ccc(Cl)cc12)C1CCN(c2ccc(Cl)c(F)c2)C1=O (stereo not drawn) [Example D142, N-(2-(5-chloro-1H-indol-3-yl)ethyl)-1-(4-chloro-3-fluorophenyl)-2-oxopyrrolidine-3-carboxamide]",0.561 µM
5,"Cc1ccc(N2CCC(C(=O)NCCc3c[nH]c4ccc(Cl)cc34)C2=O)cc1C (stereo not drawn) [Example D143, N-(2-(5-chloro-1H-indol-3-yl)ethyl)-1-(3,4-dimethylphenyl)-2-oxopyrrolidine-3-carboxamide]",1.02 µM
6,"O=C(NCCc1c[nH]c2ccc(Cl)cc12)C1CCN(c2ccc3c(c2)CCC3)C1=O (stereo not drawn) [Example D145, N-(2-(5-chloro-1H-indol-3-yl)ethyl)-1-(2,3-dihydro-1H-inden-5-yl)-2-oxopyrrolidine-3-carboxamide]",0.137 µM
7,"O=C(NCCc1c[nH]c2ccc(Cl)cc12)C1CCN(c2ccc3c(c2)COC3)C1=O (stereo not drawn) [Example D146, N-(2-(5-chloro-1H-indol-3-yl)ethyl)-1-(1,3-dihydroisobenzofuran-5-yl)-2-oxopyrrolidine-3-carboxamide]",1.17 µM
8,"COc1ccc(N2CCC(C(=O)NCCc3c[nH]c4ccc(Cl)cc34)C2=O)cc1F (stereo not drawn) [Example D147, N-(2-(5-chloro-1H-indol-3-yl)ethyl)-1-(3-fluoro-4-methoxyphenyl)-2-oxopyrrolidine-3-carboxamide]",0.379 µM
9,"O=C(NCCc1c[nH]c2ccc(Cl)cc12)C1CCN(c2ccc(F)c(F)c2)C1=O (stereo not drawn) [Example D148, N-(2-(5-chloro-1H-indol-3-yl)ethyl)-1-(3,4-difluorophenyl)-2-oxopyrrolidine-3-carboxamide]",0.691 µM
10,"O=C(NCCc1c[nH]c2ccc(Cl)cc12)C1CCN(C2CC2)C1=O (stereo not drawn) [Example D149, N-(2-(5-chloro-1H-indol-3-yl)ethyl)-1-cyclopropyl-2-oxopyrrolidine-3-carboxamide]",2.09 µM
11,"O=C(NCCc1c[nH]c2ccc(Cl)cc12)C1CCN(c2ccc(C(F)(F)F)c(F)c2)C1=O (stereo not drawn) [Example D150, N-(2-(5-chloro-1H-indol-3-yl)ethyl)-1-(3-fluoro-4-(trifluoromethyl)phenyl)-2-oxopyrrolidine-3-carboxamide]",23.3 µM
12,"O=C(NCCc1c[nH]c2ccc(Cl)cc12)C1CCN(c2c(F)cccc2F)C1=O (stereo not drawn) [Example D151, N-(2-(5-chloro-1H-indol-3-yl)ethyl)-1-(2,6-difluorophenyl)-2-oxopyrrolidine-3-carboxamide]",0.561 µM
13,"Cc1ccc(N2CCC(C(=O)NCCc3c[nH]c4ccc(Cl)cc34)C2=O)cc1F (stereo not drawn) [Example D152, N-(2-(5-chloro-1H-indol-3-yl)ethyl)-1-(3-fluoro-4-methylphenyl)-2-oxopyrrolidine-3-carboxamide]",0.099 µM
14,"O=C(NCCc1c[nH]c2ccc(Cl)cc12)C1CCN(c2ccc(Cl)cc2)C1=O (stereo not drawn) [Example D153, N-(2-(5-chloro-1H-indol-3-yl)ethyl)-1-(4-chlorophenyl)-2-oxopyrrolidine-3-carboxamide]",0.365 µM
15,"O=C(NCCc1c[nH]c2ccc(Cl)cc12)C1CCN(c2cccc(-n3cccc3)c2)C1=O (stereo not drawn) [Example D155, 1-(3-(1H-pyrrol-1-yl)phenyl)-N-(2-(5-chloro-1H-indol-3-yl)ethyl)-2-oxopyrrolidine-3-carboxamide]",1.37 µM
